Assay results taken from patent publication US11103549B2, “Use of histone methyltransferase inhibitors and histone deacetylase inhibitors for therapy of Phelan-McDermid Syndrome” (Asddr, LLC, priority 2016, dated 2021).

Key:
[1] = test system: EHMT2/EHMT1; details: cited from earlier work
[2] = Liu et al., 2013; cited from earlier work
[3] = test system: WT mice; test: Three-chamber social interaction assay in wild-type mice; type: in vivo; details: UNC0642 1 mg/kg, i.p., once daily for 3 days, saline control 62.0%±3.1%
From the text: To test the social preference behavior, juvenile male Shank3+/ΔC mice and age-matched wild-type (WT) mice were subject to the three-chamber social interaction assay, as previously described (Duffney et al., 2015). Briefly, the test is composed of three phases with various stimuli placed in each of two side chambers. Phase 1 contains two identical nonsocial stimuli (NS1 & NS1), phase 2 contains a nonsocial stimulus (NS1) and a social stimulus (Soc1), and phase 3 contains a known social stimulus (Soc1) and a novel social stimulus (Soc2). The preference index for one stimulus over the other stimulus in each phase was compared.

[4] = test system: Shank3+/ΔC mice; test: Three-chamber social interaction assay in Shank3+/ΔC mice; type: in vivo; details: for improvement on social preference: i.p. once daily for 3 days
[5] = test system: Shank3+/ΔC mice; details: mouse, in vivo
[6] = test system: EHMT1/2; details: Liu et al., 2013; cited from earlier work
[7] = test system: Shank3+/ΔC mice; details: 5 mg/kg, i.p. 5 days, Kim et al., 2017; cited from earlier work
[8] = test system: Shank3e4-9 mice; details: before and after romidepsin treatment
[9] = test system: acetylated H3; details: Shank3+/ΔC mice, romidepsin 0.25 mg/kg, i.p., once daily for 3 days, cortical slices
[10] = test system: BTBR T+tf/J mice; details: before and after romidepsin treatment
[11] = test system: class I HDAC; details: Klimek et al., 2008; cited from earlier work

COc1cc2c(cc1OCCCN1CCCC1)N=C(N)C21CCC1 [A-366]
selectivity over other methyltransferases and other non-epigenetic targets [1]: > 100 fold | IC50 ([1]; peptide-competitive inhibitor, read-out: enzymatic IC50 EHMT2/EHMT1): ~3 nM

COc1cc2c(NC3CCN(C(C)C)CC3)nc(N3CCC(F)(F)CC3)nc2cc1OCCCN1CCCC1 [UNC0642, 2-(4,4-Difluoro-1-piperidinyl)-6-methoxy-N-[1-(1-methylethyl)-4-piperidinyl]-7-[3-(1-pyrrolidinyl)propoxy]-4-quinazolinamin]
brain penetration in vivo [2]: modest brain penetration | social preference index (Soc vs. NS, phase 2) [3]: 53.4%±5.1% | duration of therapeutic effect on social preference post-injection ([4]; Shank3+/ΔC mice, UNC0642 1 mg/kg, i.p., once daily for 3 days): ~15 days | social preference index (Soc vs. NS, phase 2) ([4]; Shank3+/ΔC mice, UNC0642 1 mg/kg, i.p., once daily for 3 days, saline control 22.5%±3.3%): 48.9%±2.3% | effect of repeated administration on social preference ([4]; Shank3+/ΔC mice, UNC0642, second round of treatment): still effective with the repeated administration | blood chemistry and hematology: indicators for liver and kidney functions, lipid and protein metabolism [5]: within normal ranges | selectivity for EHMT1/2 over other methyltransferases [6]: > 2,000 fold | toxicity at higher dose and longer duration [7]: lack of toxicity

CNCCC(Oc1ccc(C(F)(F)F)cc1)c1ccccc1 (stereo not drawn) [fluoxetine]
improvement of social preference ([4]; Shank3+/ΔC mice, fluoxetine 10 mg/kg, i.p. once daily for 2 weeks): failed to induce any improvement

CC(/C=C/C(=O)NO)=C\[C@@H](C)C(=O)c1ccc(N(C)C)cc1 [Trichostatin A]
rescue of autism-like social deficits (social preference index) ([4]; Shank3+/ΔC mice, Trichostatin A 0.5 mg/kg, i.p., once daily for 3 days): fail to persistently rescue autism-like social deficits

Cc1nc2n(c(=O)c1CCN1CCC(c3noc4cc(F)ccc34)CC1)CCCC2 [risperidone]
improvement on social preference ([4]; Shank3+/ΔC mice, risperidone 0.1 mg/kg): No improvement

CCCC(CCC)C(=O)O [valproic acid]
rescue of autism-like social deficits (social preference index) ([4]; Shank3+/ΔC mice, valproic acid 100 mg/kg, i.p., once daily for 3 days): fail to persistently rescue autism-like social deficits

Romidepsin
rescue of autism-like social deficits (social preference index) [8]: rescues autism-like social deficits in multiple mouse models of autism | duration of effect on social preference post-injection ([4]; mouse, in vivo): 21 days | preference for social stimulus over non-social object ([4]; mouse, in vivo): significantly elevated the preference for the social stimulus | level of acetylated H3 [9]: significantly elevated the level of acetylated H3 | rescue of autism-like social deficits (social preference index) [10]: rescues autism-like social deficits | potency as class I-specific HDAC inhibitor [11]: nanomolar potency

O=C1CCc2ccc(OCCCCN3CCN(c4cccc(Cl)c4Cl)CC3)cc2N1 [aripiprazole]
improvement on social preference ([4]; Shank3+/ΔC mice, aripiprazole 1 mg/kg): No improvement
